Here are results for five compounds from ChEMBL document CHEMBL1146894, “Stereospecificity in hydroxyl radical scavenging activities of four ginsenosides produced by heat processing” (Bioorg Med Chem Lett, 2006).

Experiment [1] relates to Radical scavenging activity. In words: Hydroxyl radical scavenging activity at 2 mM. The format is functional.
Experiment [2] has as its system Radical scavenging activity. The experiment in a line: Hydroxyl radical scavenging activity. Format: functional.

For the compound `C=C(CCC=C(C)C)[C@H]1CC[C@]2(C)[C@@H]1[C@H](O)C[C@@H]1[C@@]3(C)CC[C@H](O[C@@H]4O[C@H](CO)[C@@H](O)[C@H](O)[C@H]4O[C@@H]4O[C@H](CO)[C@@H](O)[C@H](O)[C@H]4O)C(C)(C)[C@@H]3CC[C@]12C`, the inhibition (usually the drop in the measured response relative to a control, in per cent) in experiment [1] was found to be 68%.

For `O=C(O[C@@H]1Cc2c(O)cc(O)cc2O[C@@H]1c1cc(O)c(O)c(O)c1)c1cc(O)c(O)c(O)c1` [EPIGALOCATECHIN GALLATE], it took 3760 µM to reach half-maximal inhibition in experiment [2] (IC50).

Consider `CC(C)=CC/C=C(\C)[C@H]1CC[C@]2(C)[C@@H]1[C@H](O)C[C@@H]1[C@@]3(C)CC[C@H](O[C@@H]4O[C@H](CO)[C@@H](O)[C@H](O)[C@H]4O[C@@H]4O[C@H](CO)[C@@H](O)[C@H](O)[C@H]4O)C(C)(C)[C@@H]3CC[C@]12C` [GINSENOSIDE RG5], for which, in experiment [2], the IC50 (commonly the concentration that inhibits the measured activity by half) stood at 150 µM. For the same compound, in experiment [1], the inhibition is 16%.

In experiment [2], `CC(C)=CCC[C@](C)(O)[C@H]1CC[C@]2(C)[C@@H]1[C@H](O)C[C@@H]1[C@@]3(C)CC[C@H](O[C@@H]4O[C@H](CO)[C@@H](O)[C@H](O)[C@H]4O[C@@H]4O[C@H](CO)[C@@H](O)[C@H](O)[C@H]4O)C(C)(C)[C@@H]3CC[C@]12C` came in with an IC50 of 440 µM. Also, the inhibition in experiment [1] was 20%.

For the compound `CC(C)=CCC[C@@](C)(O)[C@H]1CC[C@]2(C)[C@@H]1[C@H](O)C[C@@H]1[C@@]3(C)CC[C@H](O[C@@H]4O[C@H](CO)[C@@H](O)[C@H](O)[C@H]4O[C@@H]4O[C@H](CO)[C@@H](O)[C@H](O)[C@H]4O)C(C)(C)[C@@H]3CC[C@]12C`, the inhibition in experiment [1] was 72%.
